Assay results from patent US11634393B2, “Substituted tolyl fungicides” (FMC CORPORATION, priority 2018, dated 2023).

Experiments:
[1] = system: Puccinia recondita f. sp. tritici; test: Test B: wheat leaf rust, spray on wheat seedlings, disease control rating; format: in vivo; details: Rate 10 ppm, 100 = 100% disease control, 0 = no disease control relative to the controls; for pest or weed control at 10 ppm: Puccinia recondita, 192 h
Description: (§1) General protocol for preparing test suspensions for Tests A-F: the test compounds were first dissolved in acetone in an amount equal to 3% of the final volume and then suspended at the desired concentration (in ppm) in acetone and purified water (50/50 mix by volume) containing 250 ppm of the surfactant PEG400 (polyhydric alcohol esters). The resulting test suspensions were then used in Tests A-F.
The test solution was sprayed to the point of run-off on wheat seedlings. The following day the seedlings were inoculated with a spore suspension of Puccinia recondita f. sp. tritici (the causal agent of wheat leaf rust) and incubated in a saturated atmosphere at 20° C. for 24 h, and then moved to a growth chamber at 20° C. for 7 days, after which time disease ratings were made.
(§2) A rating of 100 indicates 100% disease control and a rating of 0 indicates no disease control (relative to the controls). A dash (-) indicates the compound was not tested.

Phakopsora pachyrhizi = test: Test D: Asian soybean rust, spray on soybean seedlings, disease control rating; format: in vivo; details: Rate 10 ppm, 100 = 100% disease control, 0 = no disease control relative to the controls; for pest or weed control at 10 ppm: Phakopsora pachyrhizi, 216 h
Description: as §1
The test solution was sprayed to the point of run-off on soybean seedlings. The following day the seedlings were inoculated with a spore suspension of Phakopsora pachyrhizi (the causal agent of Asian soybean rust) and incubated in a saturated atmosphere at 22° C. for 24 h and then moved to a growth chamber at 22° C. for 8 days, after which time visual disease ratings were made.
as §2

Row | SMILES | pest or weed control at 10 ppm [1] [%] | pest or weed control at 10 ppm (Phakopsora pachyrhizi) [%] | Test B disease control rating [1] [%] | Test D disease control rating (Phakopsora pachyrhizi) [%]
1 | COC(=O)NCc1cc(-c2ccn(-c3c(C)cc(Br)cc3C)n2)ccc1C [Compound 48] | 68 | 99 | – | –
2 | COC(=O)NCc1cc(-c2ccn(-c3c(C)cc(Cl)cc3C)n2)ccc1C [Compound 49] | 68 | 99 | – | –
3 | COC(=O)NCc1cc(-c2ccn(-c3c(F)cc(Br)cc3Cl)n2)ccc1C [Compound 50] | 100 | 100 | – | –
4 | COC(=O)NCc1cc(-c2ccn(-c3c(F)cc(Cl)cc3Cl)n2)ccc1C [Compound 51] | 100 | 100 | – | –
5 | COC(=O)NCc1cc(-c2ccn(-c3c(Br)cccc3I)n2)ccc1C [Compound 52] | 0 | 99 | – | –
6 | C#Cc1cc(F)c(-n2ccc(-c3ccc(C)c(CNC(=O)OC)c3)n2)c(F)c1 [Compound 53, methyl N-[[5-[1-(4-ethynyl-2,6-difluorophenyl)-1H-pyrazol-3-yl]-2-methylphenyl]methyl]carbamate] | 100 | 100 | – | –
7 | COC(=O)NCc1cc(-c2ccn(-c3c(Cl)cc([N+](=O)[O-])cc3Cl)n2)ccc1C [Compound 54] | 0 | 0 | – | –
8 | COC(=O)NCc1cc(-c2ccn(-c3c(Cl)cc(N)cc3Cl)n2)ccc1C [Compound 55] | 0 | 0 | – | –
9 | COC(=O)NCc1cc(-c2ccn(-c3c(Cl)cc(Br)cc3Cl)n2)ccc1C [Compound 56] | 80 | 100 | – | –
10 | COC(=O)NCc1cc(-c2ccn(-c3c(Cl)cc(Cl)cc3Cl)n2)ccc1C [Compound 57] | 74 | 100 | – | –
11 | COC(=O)NCc1cc(-c2ccn(-c3c(Br)cccc3Br)n2)ccc1C [Compound 58] | 68 | 100 | – | –
12 | COC(=O)NCc1cc(-c2ccn(-c3c(Cl)cccc3I)n2)ccc1C [Compound 59] | 45 | 87 | – | –
13 | COC(=O)NCc1cc(-c2ccn(-c3c(Cl)cccc3Br)n2)ccc1C [Compound 60] | 68 | 100 | – | –
14 | COC(=O)NCc1cc(-c2ccn(-c3c(C)cccc3Br)n2)ccc1C [Compound 61] | 68 | 97 | – | –
15 | C=C(C)c1cc(F)c(-n2ccc(-c3ccc(C)c(CNC(=O)OC)c3)n2)c(F)c1 [Compound 62] | – | – | 99 | 100
16 | COC(=O)NCc1cc(-c2ccn(-c3c(Cl)cc(C4CC4)cc3Cl)n2)ccc1C [Compound 65, methyl N-[[5-[1-(2,6-dichloro-4-cyclopropylphenyl)-1H-pyrazol-3-yl]-2-methylphenyl]methyl]carbamate] | 97 | 100 | – | –
17 | COC(=O)NCc1cc(-c2ccn(-c3c(F)cc(C=O)cc3F)n2)ccc1C [Compound 67, methyl N-[[5-[1-(2,6-difluoro-4-formylphenyl)-1H-pyrazol-3-yl]-2-methylphenyl]methyl]carbamate] | 0 | 12 | – | –
18 | COC(=O)NCc1cc(-c2ccn(-c3c(F)cc(C(C)=O)cc3F)n2)ccc1C [Compound 68, methyl N-[[5-[1-(4-acetyl-2,6-difluorophenyl)-1H-pyrazol-3-yl]-2-methylphenyl]methyl]carbamate] | 74 | 71 | – | –
19 | COC(=O)NCc1cc(-c2ccn(-c3c(F)cc(C(C)=NO)cc3F)n2)ccc1C [Compound 69] | – | – | 99 | 97
20 | COC(=O)NCc1cc(-c2ccn(-c3c(F)cc(C(=O)OC)cc3F)n2)ccc1C [Compound 70, methyl 3,5-difluoro-4-[3-[3-[[(methoxycarbonyl)amino]methyl]-4-methylphenyl]-1H-pyrazol-1-yl]benzoate] | 74 | 81 | – | –
